For data set [1], the target named is aldose reductase of kidney (Canis lupus familiaris, UniProt A0A8I3P2L6). The experiment in a line: Inhibitory effect on aldose reductase of kidney. The class given is biochemical, dog. The following applies: read-out: Degree of inhibition for aldose reductase (%); for inhibition at 1 µM: concentration 1x10^-6 M; for inhibition at 0.2 µM: concentration 2x10^-7 M; for inhibition at 0.5 µM: concentration 5x10^-7 M; for inhibition at 10 µM: concentration 1x10^-5 M; for inhibition at 2 µM: concentration 2x10^-6 M; for inhibition at 5 µM: concentration 5x10^-6 M. On the procedure:
Medulla of kidney of dog was homogenized with 10mM phosphoric acid buffer (pH 7.0) containing 2mM dithiothreitol in an amount of four times the volume of kidney medulla and subjected to centrifugation. The supernatant liquid was purified by affinity chromatography, gel filtration and chromatofocusing to obtain electrophoretically homogeneous aldose reductase. 0.05 ml of 3mM NADPH, 0.1 ml of DL-glyceraldehyde and 0.04 ml of distilled water were added to 0.8 ml of 0.1M phosphoric acid buffer (pH 6.2) and left to stand at 25°C for 3 minutes. Then, 0.01 ml of the aldose reductase solution was added thereto to start reaction and decreasing of absorbance of 340 nm was measured at 25°C with time. Amount of enzyme which consumes 1 µmole of NADPH for 1 minute was taken as 1 unit.

For data set [2], the target named is T1, aldose reductase of rabbit lens (Oryctolagus cuniculus, UniProt P15122).
T1 construct: to obtain electrophoretically homogeneous aldose reductase; from tissue; host or cells: rabbit lens
The experiment in a line: Inhibitory effect on aldose reductase of lens. The class given is biochemical. The conditions noted are these: read-out: Degree of inhibition for aldose reductase (%); for inhibition at 1 µM: concentration 1x10^-6 M; for inhibition at 0.5 µM: concentration 5x10^-7 M. The procedure:
0.05 ml of 3mM NADPH, 0.1 ml of DL-glyceraldehyde and 0.04 ml of distilled water were added to 0.8 ml of 0.1M phosphoric acid buffer (pH 6.2) and left to stand at 25°C for 3 minutes. Then, 0.01 ml of the aldose reductase solution was added thereto to start reaction and decreasing of absorbance of 340 nm was measured at 25°C with time. Amount of enzyme which consumes 1 µmole of NADPH for 1 minute was taken as 1 unit.
Enzyme activity was measured under the same conditions as in the above measurement of aldose reductase activity except that 0.04 ml of aqueous solution of inhibitory substance in various concentrations was added in place of 0.04 ml of distilled water and degree of inhibition was calculated from comparison of the enzyme activity with the enzyme activity obtained in the absence of inhibitor. (1) OPQ, (2) methyl OPQ, (3) 1-methylpropyl OPQ, (4) 2-methylpropyl OPQ, (5) 2-carbamoylethyl OPQ, (6) hydroxymethyl OPQ, (7) 2-methylthioethyl OPQ, (8) 2-carboxyethyl OPQ, (9) 4-hydroxybenzyl OPQ, (10) 1-methylethyl OPQ, and (11) benzyl OPQ were used as inhibition substances and (12) PQQ was used as control.
Lens of rabbit was homogenized with 10mM phosphoric acid buffer (pH 7.0) containing 2mM dithiothreitol in an amount of two times the volume of the lens and subjected to centrifugation. The supernatant liquid was purified by affinity chromatography, gel filtration and chromatofocusing to obtain electrophoretically homogeneous aldose reductase. Using (1) OPQ, (2) 1-methylpropyl OPQ, (3) 2-methylpropyl OPQ, (4) hydroxymethyl OPQ, and (5) 1-methylethyl OPQ as inhibition substances, degree of inhibition of these substances for aldose reductase of rabbit lens was examined in the same manner in Example 32.

Data set [3] can be described thus: Solubility of the isolated compound, described in words. The class given is physicochemical. The conditions noted are these: for solubility in water / solubility under neutral and alkaline conditions: water.
A further data set concerns kidney. The experiment in a line: Toxicity to kidney determined by blood examination. The class given is in vivo, mice. The following applies: conclusion from the blood examinations (a) and (b). On the procedure: After one day from administration, the mice were fasted (only water was given) and after lapse of 18 hours, blood was collected and serum was obtained therefrom. Glucose, urea nitrogen and creatinine in the serum were examined using FUJI Dry Chemslide (manufactured by Fuji Photo Film Co., Ltd.). […]
Thereafter, the mice were fasted (with giving only water) and after lapse of 18 hours, blood was collected and serum was obtained therefrom. Contents of glucose, urea nitrogen and creatinine in serum were obtained using FUJI Dry Chemslide. The results were shown by average value for eight mice.

Each structure is given as a SMILES string.

As to `CC(C)Cc1nc2c3nc(C(=O)O)cc(C(=O)O)c3c3[nH]c(C(=O)O)cc3c2o1` [2-Methylpropyl OPQ, 5-(2-Methylpropyl)-2,8,10-tricarboxy-1H-oxazo[5,4-h]-pyrrolo[2,3-f]quinoline], in data set [1], the inhibition (as a rule, the change of the read-out against control, counted positive when it falls) at 1 µM came to 63.1%; the inhibition at 0.2 µM was 30.2%; the inhibition at 0.5 µM is 44.1%. In data set [2], the inhibition at 1 µM stood at 69.8% and the inhibition at 0.5 µM was found to be 57.2%. Also, the inhibition at 0.1 µM in data set [2] (concentration 1x10^-7 M) was found to be 27%. In addition, the inhibition at 0.2 µM in data set [2] (concentration 2x10^-7 M) amounted to 34.9%. In data set [3], the “solubility in acetone and diethyl ether” value is reported as “did not dissolve”; the “solubility in lower alcohols” value was “dissolved”; the solubility in water result was “easily soluble”; the “solubility under neutral and alkaline conditions” value is given as “very easily soluble”.
`O=C(O)c1cc(C(=O)O)c2c(n1)C(=O)C(=O)c1cc(C(=O)O)[nH]c1-2` [PQQ, pyrroloquinolinequinone, reference compound]: in data set [1], the inhibition at 10 µM turned out to be 64.4%, the inhibition at 2 µM was 17.3% and the inhibition at 5 µM stood at 42.8%. In addition, the toxicity to kidney result with kidney is recorded as “showed toxicity to kidney”.
On to `O=C(O)CCc1nc2c3nc(C(=O)O)cc(C(=O)O)c3c3[nH]c(C(=O)O)cc3c2o1` [2-Carboxyethyl OPQ, 5-(2-Carboxyethyl)-2,8,10-tricarboxy-1H-oxazo[5,4-h]-pyrrolo[2,3-f]quinoline], for which, in data set [1], the inhibition at 10 µM came to 58.5%, the inhibition at 1 µM is 48%, the inhibition at 2 µM was found to be 49.9% and the inhibition at 5 µM is 55%. Further, the inhibition at 0.5 µM in data set [1] worked out at 22.5%. In addition, in data set [3], the “solubility in acetone and diethyl ether” value is reported as “did not dissolve”; the “solubility in lower alcohols” value is reported as “dissolved”; the solubility in water result is reported as “easily soluble”; the “solubility under neutral and alkaline conditions” value is “very easily soluble”.
On to `O=C(O)c1cc(C(=O)O)c2c(n1)c1nc(Cc3ccc(O)cc3)oc1c1cc(C(=O)O)[nH]c12` [4-Hydroxybenzyl OPQ, 5-(4-Hydroxybenzyl)-2,8,10-tricarboxy-1H-oxazo[5,4-h]-pyrrolo[2,3-f]quinoline], for which, in data set [1], the inhibition at 10 µM is 89%, the inhibition at 1 µM was determined as 38.6%, the inhibition at 2 µM stood at 49.4% and the inhibition at 5 µM was 71.3%. For the same molecule, in data set [3], the “solubility in acetone and diethyl ether” value was “did not dissolve”; the “solubility in lower alcohols” value is given as “dissolved”; the solubility in water result is on record as “easily soluble”; the “solubility under neutral and alkaline conditions” value was “especially soluble”.
`NC(=O)CCc1nc2c3nc(C(=O)O)cc(C(=O)O)c3c3[nH]c(C(=O)O)cc3c2o1` [2-Carbamoylethyl OPQ, 5-(2-Carbamoylethyl)-2,8,10-tricarboxy-1H-oxazo[5,4-h]-pyrrolo[2,3-f]quinoline]: in data set [1], the inhibition at 1 µM is 59.6%, the inhibition at 2 µM was 75.7%, the inhibition at 5 µM was found to be 89.1% and the inhibition at 0.5 µM is 44.7%. In data set [3], the “solubility in acetone and diethyl ether” value was “did not dissolve”; the “solubility in lower alcohols” value is “dissolved”; the solubility in water entry was “easily soluble”; the “solubility under neutral and alkaline conditions” value is recorded as “very easily soluble”.
In the case of `CC(C)c1nc2c3nc(C(=O)O)cc(C(=O)O)c3c3[nH]c(C(=O)O)cc3c2o1` [1-Methylethyl OPQ, 5-(1-Methylethyl)-2,8,10-tricarboxy-1H-oxazo[5,4-h]-pyrrolo[2,3-f]quinoline], in data set [1], the inhibition at 1 µM is 30.5%, the inhibition at 2 µM was found to be 48.1% and the inhibition at 5 µM was determined as 68.2%. Also, in data set [2], the inhibition at 1 µM turned out to be 43.3% and the inhibition at 0.5 µM was 33%. For the same molecule, in data set [2] (concentration 2x10^-6 M), the inhibition at 2 µM was 51.9%. Further, the inhibition at 5 µM in data set [2] (concentration 5x10^-6 M) came out at 68.4%. Further, in data set [3], the “solubility in acetone and diethyl ether” value was “did not dissolve”; the “solubility in lower alcohols” value is listed as “dissolved”; the solubility in water entry is on record as “easily soluble”; the “solubility under neutral and alkaline conditions” value is reported as “very easily soluble”.
Regarding `Cc1nc2c3nc(C(=O)O)cc(C(=O)O)c3c3[nH]c(C(=O)O)cc3c2o1` [Methyl OPQ, 5-Methyl-2,8,10-tricarboxy-1H-oxazo[5,4-h]-pyrrolo-[2,3-f]quinoline], in data set [1], the inhibition at 1 µM came to 92.1%, the inhibition at 0.2 µM turned out to be 31.4% and the inhibition at 0.5 µM came to 73.6%. Also, in data set [1] (concentration 1x10^-7 M), the inhibition at 0.1 µM amounted to 25%. Further, in data set [3], the “solubility in acetone and diethyl ether” value is “did not dissolve”; the “solubility in lower alcohols” value is “dissolved”; the solubility in water result is “easily soluble”; the “solubility under neutral and alkaline conditions” value is listed as “very easily soluble”.

(Values after patent EP0429333B1, “Process for producing oxazopyrroloquinolines, novel oxazopyrroloquinolines, and use of oxazopyrroloquinolines” (priority 1989, dated 1991).)
